Assay results taken from patent publication US6723897B2, “Methods for controlling gibberellin levels” (Monsanto Technology, LLC, priority 1998, dated 2004).

Columns and labels:
[1] = test system: GA-deficient transgenic soybean line 719 (R5); assay: Hilum treatment of soybean seeds, seedling growth and development, GA-deficient soybean; assay type: in vivo, Glycine max; parameters: key to Emergence timing / Hypocotyl length (6 DAP) / 1st internode length (12 DAP) / 3rd internode length (20 DAP) / 2nd internode length (12 DAP): pos: emergence faster/stem segment longer than controls; 0: emergence timing/stem segment length similar to controls; neg: emergence slower/stem segment shorter than controls; conditions: for 1st internode length (12 DAP) / Emergence timing / Hypocotyl length (6 DAP): single rate per compound 8.3-16.5 μg/seed
Outline: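 GA compounds dissolved in ethanol were applied as 1 μl droplets, each dried before the next, to the hilum of GA-deficient transgenic line 719 (R5) or wild-type soybean seeds; ethanol alone served as control. Emergence was scored over time as cotyledons at or above soil level, with growth measured after prolonged development.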

[2] = test system: non-transgenic soybean line A4922; assay: Field trial of seed coatings under soil compaction / different soils, wild-type soybean; assay type: in vivo, Glycine max; conditions: for Count (emergence) / Height (total plant height): A4922
Description: The second trial (data reported in Tables 22-24) tested the precursors under conditions of soil compaction.
As noted above, the second trial tested the noted precursors under conditions of soil compaction. These experiments are performed in the same manner as in the first trial, except that the soil is compacted with an all-terrain vehicle.
“Height” equals total plant height in cm.

[3] = test system: wild-type soybean line A4922; assay: Field trial of seed coating application rates, wild-type soybean
Description: GA3, GA3-3-acetate, GA5, GA9, and GA12 are evaluated in further field trials. […] The objectives of these tests are: 1) to determine if seed coatings, as compared to imbibition, of GA compounds facilitate rescue of constitutively GA-deficient transgenic dwarf soybeans (transgenic lines 719−2 plus 719+17) without causing elongation of wild-type soybeans (line A4922), and 2) to determine the seed treatment rate ranges for each of the selected GA compounds that would provide rescue of constitutively GA-deficient transgenic dwarf soybeans (transgenic lines 719−2 plus 719+17) without causing elongation of wild-type soybeans (line A4922).
Seeds are treated with GA3, GA5, GA9, GA12, and GA3-3-acetate at rates of 0, 0.1, 1, 10, and 100 μg/seed. These GA compounds are applied to the seeds using a Hege 11 seed treater (Hans-Ulrich Hege GmbH & Co., Waldenburg, Germany); 100% acetone is used as the carrier solvent. The amount of liquid introduced into the seed treater is six fluid ounces/100 lbs seed rate. In addition, GA12 is tested at 50 μg/seed. The untreated control (UTC) consisted of dry, untreated seeds. Seeds of constitutively GA-deficient transgenic dwarf soybean line 719 and wild-type A4922 are sown in both light and heavy soil. The planting depth is 0.5 to 1 inch (1.27 to 2.54 cm); watering is via drip irrigation. The experiment is carried out in three repetitions, using 25 seeds/plot (one five foot (152.4 cm) long row) for line 719, and 75 seeds/plot (two eight foot (243.8 cm) rows) for line A4922. Observations included total emergence, number of dwarfs not rescued, uniformity in plant height, average plant height, visual notes, and digital photos.
In all the experiments reported in Tables 17-24, treatments are replicated three times in a randomized block design. Data are analyzed using LSD (least significant difference) 0.05 probability using the PRM 5.0 Statistical Analysis Program (SAS Institute, North Carolina).

[4] = L719, hilum treatment, rate response
[5] = L719, hilum treatment, single rate per compound 9.7-16.5 μg/seed
[6] = Heavy soil - Loose, target rate 0.5 μg/seed, Table 23
[7] = Heavy soil - Loose, target rate 4.0 μg/seed, Table 23
[8] = Heavy soil - Loose, target rate 8.0 μg/seed, Table 23
[9] = Heavy soil - Loose, target rate 16.0 μg/seed, Table 23
[10] = Heavy soil - compacted, target rate 0.5 μg/seed, Table 23
[11] = Heavy soil - compacted, target rate 4.0 μg/seed, Table 23
[12] = Heavy soil - compacted, target rate 8.0 μg/seed, Table 23
[13] = Heavy soil - compacted, target rate 16.0 μg/seed, Table 23
[14] = Heavy soil - loose, target rate 0.5 μg/seed, Table 22
[15] = Heavy soil - loose, target rate 2.0 μg/seed, Table 22
[16] = Light soil - Compacted, target rate 0.5 μg/seed, Table 22
[17] = Light soil - Compacted, target rate 2.0 μg/seed, Table 22
[18] = Light soil - Loose, target rate 0.5 μg/seed, Table 24
[19] = Light soil - Loose, target rate 2.0 μg/seed, Table 24
[20] = Light soil - Loose, target rate 4.0 μg/seed, Table 24
[21] = Light soil - compacted, target rate 0.5 μg/seed, Table 24
[22] = Light soil - compacted, target rate 2.0 μg/seed, Table 24
[23] = Light soil - compacted, target rate 4.0 μg/seed, Table 24
[24] = Heavy soil - Loose, target rate 1.0 μg/seed, Table 23
[25] = Heavy soil - Loose, target rate 10.0 μg/seed, Table 23
[26] = Heavy soil - Loose, target rate 40.0 μg/seed, Table 23
[27] = Heavy soil - compacted, target rate 1.0 μg/seed, Table 23
[28] = Heavy soil - compacted, target rate 10.0 μg/seed, Table 23
[29] = Heavy soil - compacted, target rate 40.0 μg/seed, Table 23
[30] = Heavy soil - loose, target rate 40.0 μg/seed, Table 22
[31] = Light soil - Compacted, target rate 40.0 μg/seed, Table 22
[32] = Light soil - Loose, target rate 1.0 μg/seed, Table 24
[33] = Light soil - Loose, target rate 10.0 μg/seed, Table 24
[34] = Light soil - Loose, target rate 40.0 μg/seed, Table 24
[35] = Light soil - compacted, target rate 1.0 μg/seed, Table 24
[36] = Light soil - compacted, target rate 10.0 μg/seed, Table 24
[37] = Light soil - compacted, target rate 40.0 μg/seed, Table 24

## C=C1C[C@]23C[C@@]1(O)CC[C@H]2[C@@]12C=C[C@H](O)[C@@](C)(C(=O)O1)[C@H]2[C@@H]3C(=O)O [GA3, gibberellic acid]
[1]; [4]
  Lowest rate where biological activity is observed, 1st internode length (10 DAP): 10 μg/seed
  Lowest rate where biological activity is observed, emergence timing: 0.1 μg/seed
  Lowest rate where biological activity is observed, hypocotyl length (5 DAP): 0.1 μg/seed
[1]; L719, hilum treatment
  1st internode length (12 DAP): pos
  Emergence timing: pos
  Hypocotyl length (6 DAP): pos
[1]; [5]
  2nd internode length (12 DAP): 0
  3rd internode length (20 DAP): 0
[1]; initial seed dose approximately 10 μg/seed, hilum
  stem elongation past the first internode: not active beyond the first internode
[2]; [6]
  Count (emergence): 25.0 cde
  Height (total plant height): 5.0 efg cm
[2]; [7]
  Count (emergence): 24.7 de
  Height (total plant height): 8.7 a cm
[2]; [8]
  Count (emergence): 29.3 a-d
  Height (total plant height): 6.3 cde cm
[2]; [9]
  Count (emergence): 24.7 dc
  Height (total plant height): 7.0 bc cm
[2]; [10]
  Count (emergence): 8.3 cd
  Height (total plant height): 4.3 b-e cm
[2]; [11]
  Count (emergence): 4.0 de
  Height (total plant height): 8.0 a cm
[2]; [12]
  Count (emergence): 9.7 a-d
  Height (total plant height): 6.0 bc cm
[2]; [13]
  Count (emergence): 6.3 cde
  Height (total plant height): 6.7 ab cm
[2]; [14]
  Count (emergence): 25 cde
  Height (total plant height): 5.0 efg cm
[2]; [15]
  Count (emergence): 21 ef
  Height (total plant height): 6.7 bcd cm
[2]; [16]
  Count (emergence): 28 bcd
  Height (total plant height): 5.7 def cm
[2]; [17]
  Count (emergence): 13 ef
  Height (total plant height): 8.0 c cm
[2]; [18]
  Count (emergence): 43.0 abc
  Height (total plant height): 7.0 ef cm
[2]; [19]
  Count (emergence): 38.3 bc
  Height (total plant height): 9.0 cd cm
[2]; [20]
  Count (emergence): 37.7 c
  Height (total plant height): 10.3 b cm
[2]; [21]
  Count (emergence): 28.3 bcd
  Height (total plant height): 5.7 def cm
[2]; [22]
  Count (emergence): 12.7 ef
  Height (total plant height): 8.0 c cm
[2]; [23]
  Count (emergence): 7.7 f
  Height (total plant height): 10.3 b cm
[2]; compacted soil, FIG. 40
  emergence at approximately equivalent biological response (height): 68%
[3]; 0.1 μg compound per seed
  A4922 Height, cm, Heavy soil: 5.7 efg cm
  A4922 Height, cm, Light soil: 6.7 fg·cm
  No. A4922 Emerged, Heavy soil: 28.0 c-g
  No. A4922 Emerged, Light soil: 42.7 e-i
[3]; 1 μg compound per seed
  A4922 Height, cm, Heavy soil: 6.0 efg cm
  A4922 Height, cm, Light soil: 8.3 ef cm
  No. A4922 Emerged, Heavy soil: 16.7 g
  No. A4922 Emerged, Light soil: 36.3 i
[3]; 10 μg compound per seed
  A4922 Height, cm, Heavy soil: 10.3 cm·days
  A4922 Height, cm, Light soil: 12.7 cm·days
  No. A4922 Emerged, Heavy soil: 28.7 c-g
  No. A4922 Emerged, Light soil: 39.7 f-j
[3]; 100 μg compound per seed
  A4922 Height, cm, Heavy soil: 21.0 a cm
  A4922 Height, cm, Light soil: 27.0 ab cm
  No. A4922 Emerged, Heavy soil: 19.7 efg
  No. A4922 Emerged, Light soil: 38.0 hi

## C=C1C[C@]23C[C@H]1CC[C@H]2[C@]1(C)CCC[C@@](C)(C(=O)O)[C@H]1[C@@H]3C(=O)O [GA12]
[1]; L719, hilum treatment
  1st internode length (12 DAP): 0
  Emergence timing: 0
  Hypocotyl length (6 DAP): neg
[1]; single rate, hilum
  effect on emergence timing and hypocotyl length: inhibited emergence timing and hypocotyl length
[2]; [24]
  Count (emergence): 36.0 a
  Height (total plant height): 4.7e-15 g·cm
[2]; [25]
  Count (emergence): 26.7 b-c
  Height (total plant height): 4.0 g·cm
[2]; [26]
  Count (emergence): 33.0 ab
  Height (total plant height): 4.3 g·cm
[2]; [27]
  Count (emergence): 17.0 a
  Height (total plant height): 4.3 cde cm
[2]; [28]
  Count (emergence): 12.3 abc
  Height (total plant height): 3.7 e cm
[2]; [29]
  Count (emergence): 13.7 abc
  Height (total plant height): 4.0 de cm
[2]; [30]
  Count (emergence): 33 ab
  Height (total plant height): 4.3 g·cm
[2]; [31]
  Count (emergence): 41 a
  Height (total plant height): 4.3 g·cm
[2]; [32]
  Count (emergence): 43.7 abc
  Height (total plant height): 4.0 hi cm
[2]; [33]
  Count (emergence): 47.7 a
  Height (total plant height): 3.7 i cm
[2]; [34]
  Count (emergence): 44.0 abc
  Height (total plant height): 4.0 hi cm
[2]; [35]
  Count (emergence): 39.3 ab
  Height (total plant height): 4.3 g·cm
[2]; [36]
  Count (emergence): 41.7 a
  Height (total plant height): 4.0 g·cm
[2]; [37]
  Count (emergence): 41.0 a
  Height (total plant height): 4.3 g·cm
[2]; ten days after planting, compacted soil
  plant height dose/response in wild-type line A4922 (FIG. 40): inhibited plant height
[3]; 0.1 μg compound per seed
  A4922 Height, cm, Heavy soil: 5.3 fg·cm
  A4922 Height, cm, Light soil: 5.7 f-i cm
  No. A4922 Emerged, Heavy soil: 24.3 g·days
  No. A4922 Emerged, Light soil: 45.7 c-h
[3]; 1 μg compound per seed
  A4922 Height, cm, Heavy soil: 5.7 efg cm
  A4922 Height, cm, Light soil: 5.0 g-i cm
  No. A4922 Emerged, Heavy soil: 48.0 ab
  No. A4922 Emerged, Light soil: 55.7 ab
[3]; 10 μg compound per seed
  A4922 Height, cm, Heavy soil: 5.0 fgh cm
  A4922 Height, cm, Light soil: 3.7 hij cm
  No. A4922 Emerged, Heavy soil: 1.9e-14 g
  No. A4922 Emerged, Light soil: 46.3 c-g
[3]; 50 μg compound per seed
  A4922 Height, cm, Heavy soil: 2.7 hi cm
  A4922 Height, cm, Light soil: 3.0 ij cm
  No. A4922 Emerged, Heavy soil: 40.0 bcd
  No. A4922 Emerged, Light soil: 51.3 bcd
[3]; 100 μg compound per seed
  A4922 Height, cm, Heavy soil: 2.3 i cm
  A4922 Height, cm, Light soil: 2.7 J·cm
  No. A4922 Emerged, Heavy soil: 38.7 bcd
  No. A4922 Emerged, Light soil: 53.0 bc
